# Source: patent US12582722B2, “Bifunctional compounds for degrading BTK via ubiquitin proteosome pathway” (NURIX THERAPEUTICS, INC., priority 2019, dated 2026)
# Biological target: T1, BTK (Homo sapiens, UniProt Q06187)
# T1 construct: endogenous in cells; host or cells: Ramos (ATCC CRL-1596)
# Assay: Cellular BTK HTRF Assay (BTK degradation in Ramos cells)
# Assay type: cell-based
# Conditions: four hours incubation, 37° C., BTK levels relative to DMSO-treated cells
# Procedure: Ramos (CRL-1596) cells were obtained from American Type Culture Collection and were grown in RPMI-1640 media (ATCC, 30-2001) supplemented with 10% heat-inactivated FBS (Corning Premium Fetal Bovine Serum from Fisher, MT35015CV).
# Compounds of the present invention were added to 50,000 Ramos cells in round-bottom 96 well plates with a final DMSO concentration of […] and were incubated at 37° C., 5% CO2 for four hours. BTK levels were determined using Cisbio Total-BTK HTRF ([…] Time-Resolved Fluorescence) kit (63ADK064PEG) according to manufacturer's protocol. Briefly, cells were incubated in 1× supplied lysis buffer for 30 minutes. In an opaque white low volume 96 well plate (Cisbio, 66PL96005), cell lysate was combined with two different specific BTK antibodies, one conjugated with Eu^3+-Cryptate FRET donor and one conjugated with d2 FRET acceptor. Assay controls include wells containing cell lysate with only the Eu^3+-Cryptate FRET donor antibody and wells containing both HTRF antibodies and lysis buffer without cells or control lysate provided by Cisbio. HTRF ratio was calculated as (acceptor signal at 665 nm/donor signal at 620 nm)×10^4. Background HTRF levels were determined from the control well containing the donor, but no acceptor, antibody. Background HTRF levels were subtracted from all samples. Readouts were reported as HTRF levels relative to HTRF levels of DMSO-treated cells. Four-parameter non-linear regressions were performed in GraphPad Prism 7.02 to obtain DC50 values. DC50 values are provided in Table 3, wherein A<7.5 nM, 7.5 nM≤B≤50 nM, and 50 nM<C<500 nM.
# T1 sequence (Q06187 whole entry): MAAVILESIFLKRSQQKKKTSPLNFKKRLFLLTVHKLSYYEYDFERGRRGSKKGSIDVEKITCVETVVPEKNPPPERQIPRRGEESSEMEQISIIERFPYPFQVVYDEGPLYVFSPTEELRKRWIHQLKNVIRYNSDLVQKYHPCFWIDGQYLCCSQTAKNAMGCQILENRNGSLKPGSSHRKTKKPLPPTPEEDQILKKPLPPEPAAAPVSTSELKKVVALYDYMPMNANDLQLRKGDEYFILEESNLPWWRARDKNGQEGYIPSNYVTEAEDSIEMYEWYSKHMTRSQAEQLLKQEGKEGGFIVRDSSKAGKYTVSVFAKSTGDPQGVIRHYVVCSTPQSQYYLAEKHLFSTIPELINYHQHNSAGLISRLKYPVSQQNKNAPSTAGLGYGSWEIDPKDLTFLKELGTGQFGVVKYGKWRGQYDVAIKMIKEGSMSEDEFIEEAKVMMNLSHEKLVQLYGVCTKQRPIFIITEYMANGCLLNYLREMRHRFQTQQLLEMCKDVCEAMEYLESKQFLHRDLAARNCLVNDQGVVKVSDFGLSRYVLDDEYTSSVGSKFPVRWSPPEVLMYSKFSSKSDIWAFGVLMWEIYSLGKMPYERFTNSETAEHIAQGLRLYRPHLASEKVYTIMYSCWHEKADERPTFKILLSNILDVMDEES
row,SMILES,DC50 [nM]
1,"CS(=O)(=O)c1ccc(Nc2nc(N3CCC[C@@H](NC(=O)C4CC5CCC(C4)N5CC4CCN(c5ccc6c(c5)C(=O)N(C5CCC(=O)NC5=O)C6=O)CC4)C3)cnc2C(N)=O)cc1 (stereo partly drawn) [Compound 34, (1R,3s,5S)—N—((R)-1-(5-carbamoyl-6-((4-(methylsulfonyl)phenyl)amino)pyrazin-2-yl)piperidin-3-yl)-8-((1-(2-(2,6-dioxopiperidin-3-yl)-1,3-dioxoisoindolin-5-yl)piperidin-4-yl)methyl)-8-azabicyclo[3.2.1]octane-3-carboxamide]",7.5 to 50
2,"CS(=O)(=O)c1ccc(Nc2nc(N3CCC[C@@H](NC(=O)N4CCC5(CC4)CN(c4ccc6c(c4)C(=O)N(C4CCC(=O)NC4=O)C6=O)C5)C3)cnc2C(N)=O)cc1 (stereo partly drawn) [Compound 28, N—((R)-1-(5-carbamoyl-6-((4-(methylsulfonyl)phenyl)amino)pyrazine-2-yl)piperidin-3-yl)-2-(2-(2,6-dioxopiperidin-3-yl)-1,3-dioxoisoindolin-5-yl)-2,7-diazaspiro[3.5]nonane-7-carboxamide]",7.5 to 50
3,"CS(=O)(=O)c1ccc(Nc2nc(N3CCC[C@@H](NC(=O)[C@H]4[C@@H]5CN(CC6CCN(c7ccc8c(c7)C(=O)N(C7CCC(=O)NC7=O)C8=O)CC6)C[C@@H]54)C3)cnc2C(N)=O)cc1 (stereo partly drawn) [Compound 33, (1R,5S,6r)-N—((R)-1-(5-carbamoyl-6-((4-(methylsulfonyl)phenyl)amino)pyrazin-2-yl)piperidin-3-yl)-3-((1-(2-(2,6-dioxopiperidin-3-yl)-1,3-dioxoisoindolin-5-yl)piperidin-4-yl)methyl)-3-azabicyclo[3.1.0]hexane-6-carboxamide]",< 7.5
4,"CS(=O)(=O)c1ccc(Nc2nc(N3CCC[C@@H](NC(=O)C4CCC5(CC4)CCN(c4ccc6c(c4)C(=O)N(C4CCC(=O)NC4=O)C6=O)CC5)C3)cnc2C(N)=O)cc1 (stereo partly drawn) [Compound 36, N-[(3R)-1-{5-carbamoyl-6-[(4-methanesulfonylphenyl)amino]pyrazin-2-yl}piperidin-3-yl]-3-[2-(2,6-dioxopiperidin-3-yl)-1,3-dioxoisoindol-5-yl]-3-azaspiro[5.5]undecane-9-carboxamide]",< 7.5
5,"CS(=O)(=O)c1ccc(Nc2nc(N3CCC[C@@H](NC(=O)C4CN(CC5CCN(c6ccc7c(c6)C(=O)N(C6CCC(=O)NC6=O)C7=O)CC5)C4)C3)cnc2C(N)=O)cc1 (stereo partly drawn) [Compound 30, 5-((3R)-3-(1-((1-(2-(2,6-dioxopiperidin-3-yl)-1,3-dioxoisoindolin-5-yl)piperidin-4-yl)methyl)azetidine-3-carboxamido)piperidin-1-yl)-3-((4-(methylsulfonyl)phenyl)amino)pyrazine-2-carboxamide]",7.5 to 50
6,"Cc1cc(Nc2nc(N3CCC[C@@H](NC(=O)C4CCN(C5CCN(c6ccc7c(c6)C(=O)N(C6CCC(=O)NC6=O)C7=O)CC5)CC4)C3)cnc2C(N)=O)sn1 (stereo partly drawn) [Compound 39, N—((R)-1-(5-carbamoyl-6-((3-methylisothiazol-5-yl)amino)pyrazin-2-yl)piperidin-3-yl)-1′-(2-(2,6-dioxopiperidin-3-yl)-1,3-dioxoisoindolin-5-yl)-[1,4′-bipiperidine]-4-carboxamide]",< 7.5
7,"CS(=O)(=O)c1ccc(Nc2nc(N3CCC[C@@H](NC(=O)OCCC4CCN(c5ccc6c(c5)C(=O)N(C5CCC(=O)NC5=O)C6=O)CC4)C3)cnc2C(N)=O)cc1 (stereo partly drawn) [Compound 6, 2-(1-(2-(2,6-dioxopiperidin-3-yl)-1,3-dioxoisoindolin-5-yl)piperidin-4-yl)ethyl ((R)-1-(5-carbamoyl-6-((4-(methylsulfonyl)phenyl)amino)pyrazin-2-yl)piperidin-3-yl)carbamate]",7.5 to 50
8,"CS(=O)(=O)c1ccc(Nc2nc(N3CCC[C@@H](NC(=O)OC[C@@H]4CCN(c5ccc6c(c5)C(=O)N(C5CCC(=O)NC5=O)C6=O)C4)C3)cnc2C(N)=O)cc1 (stereo partly drawn) [Compound 9, ((3R)-1-(2-(2,6-dioxopiperidin-3-yl)-1,3-dioxoisoindolin-5-yl)pyrrolidin-3-yl)methyl ((R)-1-(5-carbamoyl-6-((4-(methylsulfonyl)phenyl)amino)pyrazin-2-yl)piperidin-3-yl)carbamate]",50 to 500
9,"Cc1cc(Nc2nc(N3CCC[C@@H](NC(=O)OCCC4CCN(c5ccc6c(c5)C(=O)N(C5CCC(=O)NC5=O)C6=O)CC4)C3)cnc2C(N)=O)sn1 (stereo partly drawn) [Compound 7, 2-(1-(2-(2,6-dioxopiperidin-3-yl)-1,3-dioxoisoindolin-5-yl)piperidin-4-yl)ethyl ((R)-1-(5-carbamoyl-6-((3-methylisothiazol-5-yl)amino)pyrazin-2-yl)piperidin-3-yl)carbamate]",50 to 500

# Second part, the compound after the results:
row,DC50 [nM],SMILES
1,< 7.5,"Cn1cc(Nc2nc(N3CCC[C@@H](N4CCC5(CCN(CC6CN(c7ccc8c(c7)C(=O)N(C7CCC(=O)NC7=O)C8=O)C6)CC5)C4=O)C3)cnc2C(N)=O)cn1 (stereo partly drawn) [Compound 50, 5-[(3R)-3-[8-({1-[2-(2,6-dioxopiperidin-3-yl)-1,3-dioxoisoindol-5-yl]azetidin-3-yl}methyl)-1-oxo-2,8-diazaspiro[4.5]decan-2-yl]piperidin-1-yl]-3-[(1-methylpyrazol-4-yl)amino]pyrazine-2-carboxamide]"
2,< 7.5,"Cn1cc(Nc2nc(N3CCC[C@@H](N4CC5(CN(C6CCN(c7ccc8c(c7)C(=O)N(C7CCC(=O)NC7=O)C8=O)CC6)C5)OC4=O)C3)cnc2C(N)=O)cn1 (stereo partly drawn) [Compound 44, 5-[(3R)-3-(2-{1-[2-(2,6-dioxopiperidin-3-yl)-1,3-dioxoisoindol-5-yl]piperidin-4-yl}-6-oxo-5-oxa-2,7-diazaspiro[3.4]octan-7-yl)piperidin-1-yl]-3-[(1-methylpyrazol-4-yl)amino]pyrazine-2-carboxamide]"
3,< 7.5,"Cn1cc(Nc2nc(N3CCC[C@@H](N4CCC5(CCN(C6CCN(c7ccc8c(c7)C(=O)N(C7CCC(=O)NC7=O)C8=O)CC6)CC5)C4=O)C3)cnc2C(N)=O)cn1 (stereo partly drawn) [Compound 49, 5-[(3R)-3-(8-{1-[2-(2,6-dioxopiperidin-3-yl)-1,3-dioxoisoindol-5-yl]piperidin-4-yl}-1-oxo-2,8-diazaspiro[4.5]decan-2-yl)piperidin-1-yl]-3-[(1-methylpyrazol-4-yl)amino]pyrazine-2-carboxamide]"
4,50 to 500,"CS(=O)(=O)c1ccc(Nc2nc(N3CCC[C@@H](NC(=O)CCOCCCc4cccc5c4CN(C4CCC(=O)NC4=O)C5=O)C3)cnc2C(N)=O)cc1 (stereo partly drawn) [Compound 47, 5-[(3R)-3-(3-{3-[2-(2,6-dioxopiperidin-3-yl)-1-oxo-3H-isoindol-4-yl]propoxy}propanamido)piperidin-1-yl]-3-[(4-methanesulfonylphenyl)amino] pyrazine-2-carboxamide]"
